Two compounds from US7582786B2, “Synthetic catalytic free radical scavengers useful as antioxidants for prevention and therapy of disease” (Eukarion Inc., priority 1996, dated 2009) can be followed below.

“Also recorded” adds a separate entry of the source.

The nature of series [1]: SOD activity, xanthine/xanthine oxidase with NBT as acceptor (Example 2). It counts as biochemical. As for the experimental part: Superoxide dismutase (SOD) activity was assayed by following the inhibition of the reduction of an electron acceptor molecule in the presence of the free-radical generating system xanthine/xanthine oxidase (McCord et al. (1973) Superoxide and Superoxide Dismutase in “Oxidases and Related Redox Systems, vol. I, King et al. eds., University Park press, Baltimore, pp. 51-76). The assay mixture consisted of 50 mM sodium phosphate, pH 7.8, 120 μM xanthine, 0.2 units/ml xanthine oxidase, with acceptor molecule and salen manganese compound, as indicated. Assays were conducted at 27±0.2° C. using a water-jacketed cell holder in a Beckman DU7400 spectrophotometer. In most cases, oxidized cytochrome c, at 0.13 mg/ml, was employed as acceptor and its reduction was monitored spectrophotometrically at 550 nm. In some experiments, nitroblue tetrazolium (NBT), at 80 μM, was substituted for cytochrome c as the acceptor. NBT reduction was also monitored at 550 nm. An estimated extinction coefficient for NBT reduction, 20,800 M^−1cm^−1, determined empirically by exhaustive reduction of NBT in the reaction mixture described above, was employed where indicated. This value agreed well with reported extinction coefficients for reduced tetrazolium dyes. […] Conversion of xanthine to urate was calculated using ε290's of […] for urate and 4050 M^−1cm^−1 for xanthine. […]

The next series concerns Hippocampal slices. As to the kind of experiment: Lactic acid-induced lipid peroxidation in hippocampal slices. It counts as cell-based, rat. To be noted: C7 50 μM, 30 mM lactate pH 5.0, 100 minutes. As for the experimental part: Hippocampal slices (400 μm thick) were obtained from Sprague-Dawley rats (150-200 g) and collected in preoxygenated (95% O2/5% CO2) Krebs-Ringer phosphate medium (pH 7.4) containing NaCl 120 mM, KCl 5 mM, CaCl2 1.3 mM, MgCl2 1.2 mM, NaPhosphate 16 mM (pH 7.4) and glucose 10 mM. After 15 minutes preincubation in a water bath at 35° C. under agitation, the buffer was replaced with the same buffer (control) or a modified buffer (lactate buffer) containing NaCl 90 mM, KCl 5 mM, CaCl2 1.3 mM, MgCl2 1.2 mM, NaPhosphate 16 mM and lactic acid 30 mM (pH 5.0). […] After 100 minutes, slices were collected and homogenized in 0.9 ml of TCA 5%, whereas 0.35 ml of TCA 5% was added to 0.5 ml of the incubation medium. Lipid peroxidation was measured by adding 0.25 ml of a thiobarbituric acid reagent (TBAR) to 0.85 ml of the TCA extracts and incubating the mixture for 60 minutes at 85-93° C. Lipids were then extracted with 2×0.5 ml 1-butanol by vortexing for 10 seconds, then centrifuging at 2,000 rpm for 10 minutes. The absorbance of peroxidized lipids in the alcohol phase was measured in a spectrophotometer at 532 nm. Data were expressed as nmoles of malondialdehyde (MDA) using authentic MDA to establish a standard curve. Proteins were measured from an aliquot of the TCA extracts using the method of Bradford and the final results were calculated as nmoles MDA formed/mg protein.

Series [2] is described as follows: C7 inactivation in H2O2, HPLC. Conditions: 100 μM C7, 1 mM H2O2, with 1 mM ABTS. It counts as physicochemical. As for the experimental part: Where indicated, 1 mM ABTS was also present. Components were mixed and, after various incubations times, a 30 μl aliquot was injected onto the HPLC. The mixtures were chromatographed on an octadecyl-silica column using a mobile phase consisting of 60% methanol:40% 0.1 M Nacl and a flow rate of 1 ml/min. […] A third component, with a retention time of 4.8 min, was detectable under some conditions; its appearance and disappearance was monitored but it was not further analyzed. In this system, ABTS and its oxidized product had retention times of 3.4 and 3.1-min, respectively, well resolved from the peaks of interest. Absorbance spectra collected during each run allowed the identity of C7 and salicylaldehyde to be verified. All peaks were integrated based upon their absorbance at 240 nm. The results are expressed as the percentage of maximum peak area. […] For the two putative breakdown products, this is equivalent to the largest peak observed during the course of the ˜2000 sec incubation period.

Another series concerns MRL/lpr mice. Put plainly: Lifespan of autoimmune MRL/lpr mice. The format is in vivo. To be noted: 1 mg/mouse intraperitoneally three times per week. An excerpt:
MRL/lpr mice develop autoantibodies and numerous autoimmune associated pathologies and die prematurely (mean lifespan ˜150 days). They are considered a mouse model for autoimmune disorders such as lupus. […] Control mice received vehicle injections only or were left untreated.
MRL/lpr mice develop autoantibodies and numerous autoimmune associated pathologies and die prematurely (mean lifespan˜150 days). They are considered a mouse model for autoimmune disorders such as lupus. […] Control mice received vehicle injections only or were left untreated.

A short description of series [3]: Catalase activity, decomposition of hydrogen peroxide monitored at 240 nm (Example 1). It counts as biochemical. To be noted: Example 1, H2O2 decomposition at 240 nm. As for the experimental part:
Catalase activity was measured using a spectrophotometric method in which the decomposition of hydrogen peroxide is monitored at 240 nm according to the method of Aebi et al. (1984) Methods Enzymol. 105: 121, incorporated herein by reference. One unit of catalase activity is defined as the amount of enzyme (or salen-metal complex) required to decompose 1 μmole of hydrogen peroxide in one minute.

Another series deals with Rats. As to the kind of experiment: Rat model for stroke, Middle Cerebral Artery occlusion. The format is in vivo. Conditions: single intravenous injection 3 hr after MCA occlusion. As for the experimental part: (§1) Rats were subjected to a Middle Cerebral Artery (MCA) Occlusion model involving permanent occlusion of the parietal branch of the left middle cerebral artery and temporary (60 min) occlusion of the common carotid arteries. As indicated, rats received a single intravenous injection of vehicle (Control), or C40 at 3 hr after the MCA was occluded. Twenty-one hr after MCA occlusion, brains were removed, sectioned, and stained with the viability dye TTC (2,3,5-triphenyltetrazolium chloride). The stained sections were photographed and the volumes of infarcted (unstained) and viable (red stained) brain tissue quantitated by image analysis.
as §1, with “occlusion” for “Occlusion”

A further series relates to mice. As to the kind of experiment: Mouse skin transplantation model. It counts as in vivo. To be noted: 50 mg/kg single intraperitoneal injection at grafting. As for the experimental part: In this model, donor and recipient mice were immunologically mismatched (ClassI/Class II MHC mismatched). A piece of skin (˜1 cm^2) from the tail of a donor mouse was transplanted onto the back of a recipient mouse. The graft was bandaged and observed daily for rejection, as indicated by loss of vascularization and necrosis. Recipient mice received vehicle (Control) or 50 mg/kg C40 as a single intraperitoneal injection at the time of grafting.

As for `[Cl][Mn]1[O]c2ccccc2C=NCCN=Cc2ccccc2[O]1` [Compound C7], the NBT reduction entry in series [1] (0.1 to 6 μM C7) is given as “inhibited the rate of NBT reduction in a concentration-dependent manner; also recorded: inhibits NBT reduction”. For the same compound, in series [1] (about 1.7 nmoles C7), the “inhibition of NBT reduction” value is listed as “about 59%”. Also, the “lactate-induced increase in lipid peroxidation” value in the series on Hippocampal slices is “totally abolished; also recorded: protects”. In addition, in series [2], the “C7 peak disappeared rapidly” value is listed as “about 20%” and the “C7 persisting for the ~2000 sec incubation” value is reported as 80%. Also, the lifespan result with MRL/lpr mice is “prolongs the life”. Moreover, the “Catalase Activity” value in series [3] came to 200 units/mM.
As for `COc1cccc2c1[O][Mn]([Cl])[O]c1c(cccc1OC)C=NCCN=C2` [Compound C40], the “protection, infarct volume” value in the series with Rats was “protective”. In addition, the graft rejection result with mice was “delays rejection”.
